Measured values: PubChem BioAssay (NCI)
“And” between values parts separate entries of the source, which are not always exact repeats. Equal values may be shown once.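 Interpolation was linear, between the two tested concentrations surrounding the appropriate level; five concentrations were tested over 48 hours in 96-well plates. GI50 = concentration required for 50% inhibition of growth. TGI: concentration producing complete growth inhibition.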

Key:
Test in all cases: growth of human tumour cells (NCI), 48 h
MDA-N = tested on: MDA-N
TK-10 renal = tested on: TK-10 renal
HCT-116 colon = tested on: HCT-116 colon
HCC-2998 colon = tested on: HCC-2998 colon
SK-MEL-5 melanoma = tested on: SK-MEL-5 melanoma
HOP-62 NSCLC = tested on: HOP-62 NSCLC
PC-3 prostate = tested on: PC-3 prostate
NCI-H522 lung = tested on: NCI-H522 lung
HL-60(TB) leukemia = tested on: HL-60(TB) leukemia
NCI-H460 lung = tested on: NCI-H460 lung
SK-MEL-28 melanoma = tested on: SK-MEL-28 melanoma
U251 CNS = tested on: U251 CNS

SMILES | TGI (MDA-N) [µM] | TGI (TK-10 renal) [µM] | TGI (HCT-116 colon) [µM] | TGI (HCC-2998 colon) [µM] | TGI (SK-MEL-5 melanoma) [µM] | TGI (HOP-62 NSCLC) [µM] | TGI (PC-3 prostate) [µM] | TGI (NCI-H522 lung) | TGI (HL-60(TB) leukemia) [µM] | TGI (NCI-H460 lung) [µM] | TGI (SK-MEL-28 melanoma) [µM] | TGI (U251 CNS) [µM] | GI50 (MDA-N) [µM] | GI50 (HCT-116 colon) | GI50 (SK-MEL-5 melanoma) [µM] | GI50 (NCI-H522 lung) | GI50 (HL-60(TB) leukemia) | GI50 (NCI-H460 lung) [µM] | GI50 (SK-MEL-28 melanoma) [µM]
C1CC[C@H]2SSC3CCCC[C@H]3SSC2C1 (stereo partly drawn) | > 100 | > 100 | > 100 | > 100 | > 100 | > 100 | > 100 | > 100 µM | > 100 | > 100 | > 100 | > 100 |  |  |  |  |  |  | 
COC(=O)/C=C/C1(O)C=CC(=O)C=C1 | 4.5 | 16.4 | 3.73 | 21 | 17.6 | 14.4 | 9.53 | 0.598 µM | 6.8 | > 61.7 | > 19.8 | > 26.5 |  |  |  |  |  |  | 
Cc1ccc2nc(C=Nc3ccc(Cl)cc3)cc(C)c2c1 | 25.2 | 57 | 14.3 | 6.62 | 25.2 | 22.5 | > 76.5 | 26.6 µM | 16.7 | > 70.6 | 36.4 | 32.9 |  |  |  |  |  |  | 
CN1CN(c2ccccc2)C2(CCN(CCC3COc4ccccc4O3)CC2)C1=O (stereo not drawn) | 53.1 | 48.2 | 23.2 | 23.9 | 28.2 |  | > 100 | 33.4 µM | 45.8 |  | 47.3 | 66.5 |  |  |  |  |  |  | 
COc1ccc(C(=O)/C=C/c2ccc(OCCSCCCCCCCCCCSCCOc3ccc(/C=C/C(=O)c4ccc(OC)c(OC)c4)cc3)cc2)cc1OC | > 100 | > 100 | > 100 | > 100 | > 100 | > 100 | > 100 | > 100 µM | > 100 | > 100 | > 100 |  |  |  |  |  |  |  | 
O=C(C/C(=N/O)c1cc(-c2ccccc2)no1)c1ccccc1 | > 100 | > 100 | 60 | > 100 | > 100 | 40.2 | > 100 | 37.2 µM | 74.6 | > 100 | > 100 | 60.5 |  |  |  |  |  |  | 
C=C(CN1CC2C[C@](C(=O)OC)(c3cc4ccccc4[nH]3)C1C(OC)C2OC)S(=O)(=O)c1ccccc1 (stereo partly drawn) | 8.94 | 17.4 | 7.08 | 3.73 | 10.7 | 23.4 | 13 | 3.79 µM | 5.12 | 12 | 25.5 | 8.52 |  |  |  |  |  |  | 
CCOC(=O)c1c2c(c(O)c3ccccc3c(O)n(Cc3ccccc3)c1C)C(=O)C=CC2=O | > 100 | > 100 | > 100 | > 100 | > 100 | > 100 | > 100 | 92.7 µM | > 100 | > 100 | > 100 | > 100 |  |  |  |  |  |  | 
COc1ccc(/C=C2\CCC/C(=C\c3ccc(O)c(CN4CCCCC4)c3)C2=O)cc1 | 37.2 | 52.1 | 13.1 | 33.4 | 39.5 | > 56.3 | 42.7 | 19.1 µM | > 100 | 44.8 | 42.2 | 33.9 |  |  |  |  |  |  | 
CCN(CC)CCNc1ccc2nnn3c4ccc(O)cc4c(=O)c1c23 | 17.5 | 18.9 | 15.6 | 15.4 | 15.7 | 14 | 16.9 | 20.9 µM | 25.1 | 4.64 | 24.2 | 18.2 |  |  |  |  |  |  | 
c1ccc2c(c1)CCc1[nH]c3c(c1-2)-c1ccccc1CC3 | > 100 | > 100 | > 100 | > 100 | > 100 | 58.5 | > 100 | > 100 µM | > 100 | > 100 | > 100 | > 100 |  |  |  |  |  |  | 
Cc1ccc(S(=O)c2sccc2C=O)cc1 (stereo not drawn) | > 100 | > 100 | 31 | > 100 | > 100 | 68.1 | > 100 | > 100 µM | 48.2 | 50.4 | 92.4 | 34.6 |  |  |  |  |  |  | 
O=C1CSC(c2c[nH]c3ccccc23)N1c1ccccc1[N+](=O)[O-] (stereo not drawn) | > 100 | > 100 | > 100 | > 100 | > 100 | > 100 | > 100 | > 100 µM | > 100 | > 100 | > 100 | > 100 |  |  |  |  |  |  | 
COc1ccc2cc(-c3nc(N)nc(N4N=C(C)CC4(C)C)n3)c(=N)oc2c1 | 33.5 | 72 | 35 | 32.6 | 30.1 | 41.6 | 39.2 | 27.8 µM | 43.9 | 35.6 | 31.8 | 41.9 |  |  |  |  |  |  | 
CCOC(=O)C(NC(=O)c1ccccc1)(Nc1ccc(Cl)cc1C(F)(F)F)C(F)(F)F (stereo not drawn) | 3.69 | > 100 | > 84.5 | > 79.4 | > 37.5 | 31.8 | 29.2 | 7.29 µM | 5.04 | > 52.3 | > 100 | 19 |  |  |  |  |  |  | 
CN1CCN(c2ccc3nc(-c4ccc5nc(-c6ccc(O)cc6)[nH]c5c4)[nH]c3c2)CC1 | 354 | 1300 | 512 | 1080 | 158 | 1040 | 1150 | 65.5 µM and 202 µM | 148 | 714 | 92.3 | 799 | 8.77 | 5.66 µM and 30.5 µM | 97.9 | 4.47 µM and 3.05 µM | 9.03 µM and 24.3 µM | 349 | 18.8
COC1OC(COC(=O)c2cc(O)c(O)c(O)c2)C(OC(=O)c2cc(O)c(O)c(O)c2)C(OC(=O)c2cc(O)c(O)c(O)c2)C1OC(=O)c1cc(O)c(O)c(O)c1 (stereo not drawn) | 87.6 | > 100 | > 100 | > 100 | > 100 | > 100 | > 100 | 50.4 µM | 50.1 | > 100 | > 100 | > 100 |  |  |  |  |  |  | 
